In one experiment the target is T1, hTRPV1 (Homo sapiens, UniProt Q8NER1).
T1 construct: expressed in transfected cells; host or cells: HEK293T
Description: whole-cell patch-clamp of hTRPV1 currents activated by capsaicin. Particulars: ROSA 50 μM; agonist capsaicin 1 μM; read-out: inhibition of TRPV1 currents. It counts as cell-based. The method, then:
(§1) HEK293T cell line was obtained from the Cell Resource Center, Peking Union Medical College. HEK293T cells were maintained in Dulbecco’s modified Eagle’s medium (DMEM, Gibco) supplemented with 10% fetal bovine serum at 37 °C with 5% CO2. […] The next day, determine the plasmid transfection status by observing green fluorescence based on expression of enhanced GFP as an indicator. […] When conducting experiments on HEK293T cells transfected with G573S point mutant TRPV3 plasmid, we replaced culture medium with or without compounds after 4 h of transfection and then observed green fluorescence of HEK293T cell after 10 h. As for the relative fluorescence intensity, we convert the image to 8 bit grayscale using ImageJ (Https://imagej.net/software/fiji/downloads) and set an appropriate threshold value to reduce background noise and enhance the image contrast.
(§2) All patch-clamp recordings were conducted 16 to 24 h after transfection using an EPC10 amplifier powered by PatchMaster software (HEKA) (https://www.heka.com/downloads/downloads_main.html#down_patchmaster) at room temperature. […] Currents were recorded at a potential ramp from −100 mV to +100 mV for 1000 ms with 1000-ms intervals (for whole-cell recordings) or a persistent potential of −60 mV (inside-out patch recordings). […]

Experiment [1] has as its system TRPV3, IL-6, TNF-α, and p-P65 protein expressions. Description: Western blot of TRPV3 and NF-κB pathway proteins in mouse ear tissues. It is filed as in vivo. Particulars: topical ROSA 0.1, 1 and 10 mM; mouse ear tissues; day 5. The method, then:
Skin sensitizer Car was dissolved in saline solution containing 30% ethanol. The dorsal skin or ear of mice was swabbed with 3% Car for four consecutive days. To investigate the effects of ROSA, it was diluted to concentration of 0.1/1/10 mM with saline and topically applied on the ear and dorsal skin once a day for 4 days. The control group only received swabs with the solvent.
Skin or ear skin tissues were homogenized in radioimmunoprecipitation assay buffer (Thermo Fisher Scientific) containing protease inhibitors at a ratio of 100:1 per 10 mg tissue and centrifuged at 15,000 rpm for 15 min. The protein concentration was quantified using a bicinchoninic acid kit (Thermo Fisher Scientific), followed by SDS-PAGE for Western blot analysis. Protein transfer was performed at 150 mA for 90 min, and the transferred membranes (Millipore) were incubated with primary antibodies (TRPV3 antibody, 1:1000, TNF-α antibody, 1:1000, IL-6 antibody, 1:2500, P65 antibody, 1:1000 and p-P65 antibody, 1:1000) in 5% skim milk (Becton, Dickinson and Company). […] Images were quantified using the Image Lab software (https://www.bio-rad.com/zh-cn/product/image-lab-software?ID=KRE6P5E8Z).

The target in a further experiment is T2, TRPV3 T665A (Homo sapiens, UniProt Q8NET8, T665A).
T2 construct: expressed in transfected cells; host or cells: HEK293T
T2 sequence (Q8NET8 1-790 T665A): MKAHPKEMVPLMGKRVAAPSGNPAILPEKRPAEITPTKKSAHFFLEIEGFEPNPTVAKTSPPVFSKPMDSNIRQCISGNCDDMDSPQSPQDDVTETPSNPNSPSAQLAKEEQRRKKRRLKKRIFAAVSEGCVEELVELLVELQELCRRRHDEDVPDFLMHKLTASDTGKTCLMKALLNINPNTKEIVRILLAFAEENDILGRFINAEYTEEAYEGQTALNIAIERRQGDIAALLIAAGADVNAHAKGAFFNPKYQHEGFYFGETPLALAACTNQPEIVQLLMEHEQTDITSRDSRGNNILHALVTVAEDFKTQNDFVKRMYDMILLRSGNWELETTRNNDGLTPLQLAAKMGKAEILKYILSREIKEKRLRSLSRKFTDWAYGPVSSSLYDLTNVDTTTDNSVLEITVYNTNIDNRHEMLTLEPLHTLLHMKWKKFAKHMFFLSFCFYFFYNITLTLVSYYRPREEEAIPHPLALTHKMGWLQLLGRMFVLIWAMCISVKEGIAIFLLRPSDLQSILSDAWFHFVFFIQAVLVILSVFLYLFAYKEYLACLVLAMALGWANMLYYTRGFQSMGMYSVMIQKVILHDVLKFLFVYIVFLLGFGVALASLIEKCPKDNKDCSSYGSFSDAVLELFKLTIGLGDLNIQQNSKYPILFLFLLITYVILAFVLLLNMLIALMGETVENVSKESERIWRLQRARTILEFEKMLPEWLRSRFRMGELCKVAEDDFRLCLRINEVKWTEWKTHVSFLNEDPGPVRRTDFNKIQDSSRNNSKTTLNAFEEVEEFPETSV
Put plainly: whole-cell patch-clamp of hTRPV3 T665A mutant currents. It is filed as cell-based. Particulars: ROSA 100 μM; 2-APB; read-out: inhibition of macroscopic hTRPV3 T665A currents. How it is done: as §1, §2

For another experiment, the target named is T3, hTRPV4 (Homo sapiens, UniProt Q9HBA0).
T3 construct: expressed in transfected cells; host or cells: HEK293T
Description: whole-cell patch-clamp of hTRPV4 currents activated by GSK101. It is filed as cell-based. Particulars: ROSA 50 μM; agonist GSK101 100 nM; read-out: inhibition of TRPV4 currents. The method, then: as §1, §2

The values below come from paper PMC12206033, “Selective inhibition of TRPV3 channel by natural rosmarinic acid and its analogs for alleviation of skin lesions through downregulation of NF-κB pathway” (The Journal of Biological Chemistry, 2025).

T1 sequence (Q8NER1 whole entry): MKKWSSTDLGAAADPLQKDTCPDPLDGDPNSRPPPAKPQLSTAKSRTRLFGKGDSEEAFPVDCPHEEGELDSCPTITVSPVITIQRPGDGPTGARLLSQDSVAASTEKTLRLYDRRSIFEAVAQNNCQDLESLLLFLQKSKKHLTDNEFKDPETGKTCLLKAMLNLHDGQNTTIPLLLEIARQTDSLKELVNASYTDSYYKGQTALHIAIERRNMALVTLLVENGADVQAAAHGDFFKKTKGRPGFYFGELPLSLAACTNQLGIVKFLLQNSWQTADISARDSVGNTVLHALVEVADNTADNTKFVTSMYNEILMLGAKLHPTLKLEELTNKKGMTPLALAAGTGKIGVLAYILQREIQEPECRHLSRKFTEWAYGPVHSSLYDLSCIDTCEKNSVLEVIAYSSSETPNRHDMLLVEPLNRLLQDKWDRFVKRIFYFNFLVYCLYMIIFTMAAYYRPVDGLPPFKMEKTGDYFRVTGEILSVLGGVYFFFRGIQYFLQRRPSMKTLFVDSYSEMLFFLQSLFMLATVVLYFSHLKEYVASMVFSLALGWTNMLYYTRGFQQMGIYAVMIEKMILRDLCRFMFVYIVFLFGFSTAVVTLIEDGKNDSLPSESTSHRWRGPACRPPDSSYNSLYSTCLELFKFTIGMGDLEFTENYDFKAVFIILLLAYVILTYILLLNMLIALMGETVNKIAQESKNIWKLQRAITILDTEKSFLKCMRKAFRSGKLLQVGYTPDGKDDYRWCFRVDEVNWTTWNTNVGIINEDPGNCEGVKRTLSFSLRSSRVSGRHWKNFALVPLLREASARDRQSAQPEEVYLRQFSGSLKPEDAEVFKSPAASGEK
T3 sequence (Q9HBA0 whole entry): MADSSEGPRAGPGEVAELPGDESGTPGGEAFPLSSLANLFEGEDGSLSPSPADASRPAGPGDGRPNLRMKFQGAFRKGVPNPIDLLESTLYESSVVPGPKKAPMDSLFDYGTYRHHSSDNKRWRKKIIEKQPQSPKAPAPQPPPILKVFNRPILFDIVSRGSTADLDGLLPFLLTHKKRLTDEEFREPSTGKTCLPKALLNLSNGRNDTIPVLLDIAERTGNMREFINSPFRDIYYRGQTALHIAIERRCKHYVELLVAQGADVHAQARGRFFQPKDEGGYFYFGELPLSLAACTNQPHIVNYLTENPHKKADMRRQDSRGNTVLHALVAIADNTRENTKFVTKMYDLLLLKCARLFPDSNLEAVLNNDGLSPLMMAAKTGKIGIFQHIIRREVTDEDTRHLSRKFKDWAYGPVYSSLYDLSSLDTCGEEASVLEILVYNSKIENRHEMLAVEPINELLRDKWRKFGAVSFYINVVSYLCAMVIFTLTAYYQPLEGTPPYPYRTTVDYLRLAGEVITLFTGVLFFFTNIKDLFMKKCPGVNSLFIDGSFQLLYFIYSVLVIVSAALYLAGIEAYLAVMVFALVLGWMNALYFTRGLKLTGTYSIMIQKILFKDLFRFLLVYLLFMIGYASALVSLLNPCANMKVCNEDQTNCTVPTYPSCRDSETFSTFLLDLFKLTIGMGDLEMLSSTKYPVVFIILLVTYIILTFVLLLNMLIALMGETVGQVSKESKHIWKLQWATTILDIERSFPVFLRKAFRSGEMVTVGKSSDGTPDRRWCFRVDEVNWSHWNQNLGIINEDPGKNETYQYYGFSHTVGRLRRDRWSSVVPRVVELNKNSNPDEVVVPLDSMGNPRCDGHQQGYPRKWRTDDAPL

Regarding `O=C(/C=C/c1ccc(O)c(O)c1)O[C@H](Cc1ccc(O)c(O)c1)C(=O)O` [ROSA, rosmarinic acid], the figures for the inhibition at 50 µM on hTRPV1 and on hTRPV4 were 1.8 ± 11.7% and 2 ± 7.3%, respectively. For the same molecule, the “protein expressions of TRPV3, IL-6, TNF-α, and p-P65 induced by Car” value in experiment [1] is listed as “downregulated the upregulation”. Besides, the inhibition at 100 µM at TRPV3 T665A was 19.1%.
